The text below walks through data of PubChem BioAssay AID2305 (GlaxoSmithKline (GSK), 2010).

A word on the IC50: it is the point on the concentration scale where inhibition reaches its midpoint. Read a low IC50 as inhibition by little substance.

The structures appear in SMILES notation.

The subject of the experiment is P. falciparum 3D7 growth, pLDH absorbance. The experiment in a line: P. falciparum 3D7 growth inhibition, dose response, strain 3D7 (AID 2305).

`CCCC[C@H](NC(=O)O[C@H](COc1ccc(OCc2ccccc2)cc1)C(C)(C)C)C(=O)C(=O)Nc1ccn[nH]1` had an IC50 of 990 nM.

With `Cc1cc(N)cc2[nH]c(-c3ccc(N)cc3)nc12`, the concentration for half-maximal inhibition (IC50) turned out to be 890 nM.

Compound `Cn1cncc1C(=O)NC1CCN(c2ccnc(Nc3ccc(F)cc3)n2)C1` (stereo not drawn) yielded a 50% inhibitory concentration (IC50) of 830 nM.

As for `O=C(Nc1cc(C(F)(F)F)cc(C(F)(F)F)c1)c1cc(Cl)ccc1O`, the half-maximal inhibitory concentration (IC50) came to 1310 nM.

Turning to `Cc1cc(NCCC(=O)NCCOc2ccccc2)nc(Nc2ccccc2)n1`, the 50% inhibitory concentration (IC50) came to 1060 nM.

For the compound `O=C(NCCCCN1CCC(c2c[nH]c3ccc(-c4ccccc4)cc23)CC1)c1ccc(-c2ccccc2)cc1`, the IC50 stood at 990 nM.

On to `CCCCCCOc1ccc(C(=O)NCCC2CCN(CCCCCNC(=O)C=Cc3ccc(Cl)c(Cl)c3)CC2)cc1`, for which the IC50 was 660 nM.

Take `COc1cc2c(cc1S(=O)(=O)c1ccc(COc3ccc(C(F)(F)F)cc3)cc1)CNCC2`: the IC50 is 750 nM.

Consider `CCCc1ccc(NC(=O)c2ccc(CN3CCCN(Cc4cccc(O)c4)CC3)cc2)cc1`, for which the IC50 was 400 nM.

`COc1c(CNCCCCCCNCc2cc(Cl)c3ccccc3c2OC)cc(Cl)c2ccccc12` displayed a half-maximal inhibitory concentration (IC50) of 940 nM.

On to `Nc1cc2c(C3CCN(CC4CCN(C(=O)/C=C/c5ccc(Cl)c(Cl)c5)CC4)CC3)c[nH]c2cn1`, for which the half-inhibitory concentration (IC50) amounted to 970 nM.

In turn, `COc1ccc(-c2cccc(NC(=O)c3cccc(C#N)c3)c2)cc1CN1CCCN(C)CC1` registered an IC50 of 190 nM.

`Cc1cc(C2CCN(CCCCNC(=O)c3ccc(NC(=O)c4ccc(Cl)cc4)cc3)CC2)c(C)cc1OCc1ccncc1` showed a half-inhibitory concentration (IC50) of 500 nM.

For `Cc1ccc(NC(=O)c2cc(S(=O)(=O)NC(C)(C)C)ccc2C)nc1`, the IC50 worked out at 760 nM.

In the case of `O=C(NCCN1CCCCC1)c1cc2cc(-c3ccccc3)ccc2n1S(=O)(=O)c1ccccc1`, the half-inhibitory concentration (IC50) is 1120 nM.

With `COc1cc(O)c2c(=O)c(OC)c(-c3cccc(Cl)c3OCC(=O)O)oc2c1OC`, the half-inhibitory concentration (IC50) came to 590 nM.

Compound `CN(C)c1ccc(C=Cc2ccc3ccccc3n2)c(Cl)c1` showed a 50% inhibitory concentration (IC50) of 440 nM.

In the case of `CC[C@H](C)CNC(=O)c1cccc(-c2cccc(CNCC3CNCCCO3)c2)n1` (stereo partly drawn), the 50% inhibitory concentration (IC50) was 1080 nM.

Regarding `COc1cccc(C(=O)C2CC2CN2CC=C(c3c[nH]c4ccc(OC)nc34)CC2)c1` (stereo not drawn), the IC50 was determined as 530 nM.

Consider `CCOc1cc(C=NNc2nc3ccccc3[nH]2)ccc1OCc1ccc([N+](=O)[O-])cc1`, for which the IC50 amounted to 1000 nM.

`COc1cccc(CNC(=O)[C@H]2CNCCN2C(=O)CCCc2ccccc2)c1` came in with an IC50 of 790 nM.

`Cc1[nH]c(C)c(-c2ccc(Oc3ccc(Cl)cc3)cc2)c(=O)c1C` displayed a half-inhibitory concentration (IC50) of 390 nM.

`CCN(CCCN1CCCCC1)c1cc(C)nc(Nc2ccc(C)cc2C(F)(F)F)n1` gave a concentration for half-maximal inhibition (IC50) of 540 nM.

Take `O=c1cc(N2CCCNCC2)c(Cl)nn1Cc1ccc(NS(=O)(=O)c2ccc(Oc3ccccc3)cc2)cc1`: the IC50 worked out at 800 nM.

For `Nc1cccc(CNCc2ccc(-c3cccc(-c4nc5ccccc5[nH]4)c3)cc2)c1`, the IC50 is 710 nM.

On to `CN1CCC(NCc2ccc(-c3ccc(S(=O)(=O)NCc4ccccc4)cc3)cc2)CC1`, for which the IC50 is 830 nM.

In the case of `C=C(NC(=O)c1cc(C)cc(C)c1)C(=O)OC`, the half-maximal inhibitory concentration (IC50) came out at 170 nM.

Compound `Cc1cccc2[nH]c(-c3cccc(-c4ccc(CNCCc5ccncc5)cc4)c3)nc12` had an IC50 of 120 nM.

Turning to `CC1CN=C(c2cccc(NC(=O)Nc3cccc(C4=NCC(C)N4)c3)c2)N1` (stereo not drawn), the half-inhibitory concentration (IC50) amounted to 360 nM.

Turning to `Cc1ccc(-n2[nH]c(C)c(N=Nc3cccc(-c4cccc(NC(=O)OC(C)(C)C)c4)c3O)c2=O)cc1C`, the IC50 was determined as 700 nM.

For `Cc1ccc(O)cc1Nc1ccnc2cc(-c3ccccn3)ccc12`, the IC50 was determined as 760 nM.

In turn, `O=C1Nc2cccc3c2C1(CCCCN1CCC(c2c(-c4ccccc4)[nH]c4ccccc24)CC1)CCC3` (stereo not drawn) registered a 50% inhibitory concentration (IC50) of 1200 nM.

`CC(C)C1=CC(=NOS(=O)(=O)c2ccccc2)C=C(C(C)C)C1=O` displayed a 50% inhibitory concentration (IC50) of 710 nM.

`COc1ccc(N2C(N)=NC(N)=NC2(C)C)cc1`: the concentration for half-maximal inhibition (IC50) worked out at 110 nM.

`O=C(NCCCCCN1CCC(c2c[nH]c3ccccc23)CC1)c1ccc(Cl)c(Cl)c1` had an IC50 of 1360 nM.

As for `CCCNCc1ccc(-c2ccc(CN(CCOC)C(=O)CCC(=O)c3ccc(OC)c(F)c3)cc2)nc1`, the IC50 stood at 680 nM.

Consider `COc1ccc2nccc(NN=Cc3cccnc3)c2c1`, for which the IC50 came out at 500 nM.

In turn, `COc1ccc2nc(C)cc(NN=Cc3ccc(Cl)cc3)c2c1` yielded a half-maximal inhibitory concentration (IC50) of 230 nM.

As for `Cc1ccc2nc(C)cc(NN=Cc3ccc([N+](=O)[O-])o3)c2c1`, the IC50 was 750 nM.

In turn, `COc1ccc(COc2c(OC)cc(Cc3cnc(N)nc3N)cc2OC)cc1` displayed an IC50 of 910 nM.

`CC1=C(C(=O)OCCOCc2ccccc2)C(c2ccccc2C(F)(F)F)C(C(=O)OCCOCc2ccccc2)=C(C)N1` came in with an IC50 of 530 nM.

As for `COc1cc2c(cc1OC)CN(c1cc(N)c3cc(OC)c(OC)cc3n1)CC2`, the half-maximal inhibitory concentration (IC50) is 550 nM.

In the case of `Cn1nc(-c2cccc(CN[C@@H]3CCc4ccc(O)cc43)c2)c2cnc(NCCCN3CCCC3)nc21`, the IC50 was found to be 830 nM.

In the case of `CN1CCN(c2ccc(CNc3ccc4ncc(-c5cccc(OC(F)(F)F)c5)n4n3)cc2)CC1`, the half-maximal inhibitory concentration (IC50) came out at 860 nM.

`C[C@H](Cc1ccc(C(=O)OC(c2ccccc2)c2ccccc2)cc1)NC[C@H](O)c1ccccc1` came in with a 50% inhibitory concentration (IC50) of 180 nM.

`CCc1ccc(-c2nc3cc(NC(=O)c4cc([N+](=O)[O-])cc([N+](=O)[O-])c4)ccc3o2)cc1` came in with an IC50 of 930 nM.

`CC(C)C1C(O)=C(c2ccc3ccccc3c2)C(=O)N1Cc1ccsc1` (stereo not drawn) had a 50% inhibitory concentration (IC50) of 1070 nM.

As for `Cc1cccc2[nH]c(-c3cccc(-c4ccc(C(=O)NCCc5ccc(O)c(=O)[nH]5)cc4)c3)nc12`, the half-inhibitory concentration (IC50) worked out at 1190 nM.

Compound `COc1ccc(S(=O)(=O)NC2CCN(CCNC(=O)Nc3cc(C)nc4ccccc34)C2)cc1` (stereo not drawn) showed an IC50 of 1190 nM.

Compound `CN1CCc2cc(CN3C[C@]4(C)C[C@H]3CC(C)(C)C4)c(O)cc2C(c2ccccc2)C1` (stereo partly drawn) showed an IC50 of 720 nM.

In the case of `O=C(Nc1cccc(CN2CCN(Cc3ccc(O)cc3)CC2)c1)c1cccc(C(F)(F)F)c1`, the IC50 turned out to be 1210 nM.

Turning to `CCC(CC)CN1C(=O)C(c2ccccc2)(c2ccccc2)N=C1N`, the IC50 amounted to 970 nM.

Consider `CCCCCCCc1ccc(-c2c(C)[nH]c(C)c(Cl)c2=O)cn1`, for which the half-inhibitory concentration (IC50) is 360 nM.

Turning to `Cc1c(C(=O)NC2CCC(CN3CCC(c4c[nH]c5ccccc45)CC3)CC2)cnn1-c1c(Cl)cc(Cl)cc1Cl` (stereo not drawn), the IC50 worked out at 710 nM.

Take `CCOc1ccc(-c2nonc2NC(=O)c2ccc(OC(C)C)cc2)cc1OCC`: the 50% inhibitory concentration (IC50) amounted to 600 nM.

`CCCN1CCC(c2c[nH]c3ccc(NC(=O)Nc4cccc(Cl)c4Cl)cc23)CC1` returned a 50% inhibitory concentration (IC50) of 810 nM.

The compound `CO/C(=C\C=C\c1cc2cc(Cl)ccc2[nH]1)C(=O)NCCCN1CCN(c2cc(Cl)ccc2OC)CC1` registered an IC50 of 880 nM.

`Cn1nc(-c2ccc(NC(=O)Nc3ccc4ccccc4c3)c(F)c2)c2cnc(NCCN3CCOCC3)nc21`: the IC50 came to 1020 nM.

Consider `COc1cc2nc(N3CCN(C(=O)c4cccc(I)c4)CC3)nc(N)c2cc1OC`, for which the IC50 worked out at 1320 nM.

Compound `COc1cccc(Nc2nc(N)c3ccccc3n2)c1` registered an IC50 of 930 nM.

Turning to `S=C(NN=Cc1ccccn1)Nc1ccc(Cl)c(Cl)c1`, the IC50 was determined as 770 nM.

Consider `O=C(Nc1ccc(F)cc1)c1ccc(C(=O)NC2CCN(CC3CCCCC3)CC2)cc1`, for which the concentration for half-maximal inhibition (IC50) was 540 nM.

In the case of `O=C(/C=C/c1ccc2ccccc2c1)NCCCCCN1CCC(c2c[nH]c3ccccc23)CC1`, the concentration for half-maximal inhibition (IC50) came to 1230 nM.
